In ChEMBL document CHEMBL5143615, “Novel 2-aryl-4-aryloxyquinoline-based fungistatics for Mucor circinelloides. Biological evaluation of activity, QSAR and docking study” (Bioorg Med Chem Lett, 2022):
Active and inactive are the calls of the source. No cut-off for these calls is given here.

test system: Mucor circinelloides; assay: Antifungal activity against Mucor circinelloides R7B wild type strain assessed as reduction in spore germination at 100 ug/ml relative to control; format: functional; set-up: scale not given: the % may be the effect or the level left; conditions: dose 100 µg/ml

Row | Compound | Activity
1 | COc1cc(-c2ccc(C)cc2)nc2ccccc12 | 81.9%
2 | O=[N+]([O-])c1ccc(Oc2cc(-c3cc(F)cc(F)c3)nc3ccccc23)cc1 | 7.9%
3 | Fc1cc(F)cc(-c2ccc3ccccc3n2)c1 | 57.5%
4 | O=[N+]([O-])c1ccc(Oc2cc(-c3ccc(Cl)c(Cl)c3)nc3ccccc23)cc1 | 83.9%
5 | COc1cc(-c2cc(F)cc(F)c2)nc2ccccc12 | 32.8%
6 | c1ccc(Oc2cc(-c3ccc4c(c3)OCO4)nc3ccccc23)cc1 | 28.2%
7 | COc1ccc(-c2cc(Oc3ccccc3)c3ccccc3n2)cc1OC | 98.1%

test system: Mucor circinelloides; assay: Antifungal activity against Mucor circinelloides M5 strain assessed as reduction in spore germination at 100 ug/ml relative to control; format: functional; set-up: scale not given: the % may be the effect or the level left; conditions: dose 100 µg/ml

Row | Compound | Activity
8 | COc1cc(-c2ccc(C)cc2)nc2ccccc12 | 84.9%
9 | O=[N+]([O-])c1ccc(Oc2cc(-c3cc(F)cc(F)c3)nc3ccccc23)cc1 | 11.2%
10 | Fc1cc(F)cc(-c2ccc3ccccc3n2)c1 | 59.5%
11 | O=[N+]([O-])c1ccc(Oc2cc(-c3ccc(Cl)c(Cl)c3)nc3ccccc23)cc1 | 85.9%
12 | COc1cc(-c2cc(F)cc(F)c2)nc2ccccc12 | 29.7%
13 | c1ccc(Oc2cc(-c3ccc4c(c3)OCO4)nc3ccccc23)cc1 | 29.5%
14 | COc1ccc(-c2cc(Oc3ccccc3)c3ccccc3n2)cc1OC | 98.2%

test system: Mucor circinelloides; assay: Antifungal activity against Mucor circinelloides R7B wild type strain assessed as reduction in spore germination at 25 ug/ml relative to control; format: functional; set-up: scale not given: the % may be the effect or the level left; conditions: dose 25 µg/ml

Row | Compound | Activity
15 | O=[N+]([O-])c1ccc(Oc2cc(-c3cc(F)cc(F)c3)nc3ccccc23)cc1 | 83.9%
16 | c1ccc(Oc2cc(-c3ccc4c(c3)OCO4)nc3ccccc23)cc1 | 74.2%

test system: Mucor circinelloides; assay: Antifungal activity against Mucor circinelloides M5 strain assessed as reduction in spore germination at 25 ug/ml relative to control; format: functional; set-up: scale not given: the % may be the effect or the level left; conditions: dose 25 µg/ml

Row | Compound | Activity
17 | O=[N+]([O-])c1ccc(Oc2cc(-c3cc(F)cc(F)c3)nc3ccccc23)cc1 | 82.5%
18 | c1ccc(Oc2cc(-c3ccc4c(c3)OCO4)nc3ccccc23)cc1 | 69.7%

test system: Mucor circinelloides; assay: Antifungal activity against Mucor circinelloides R7B wild type strain assessed as reduction in spore germination at 50 ug/ml relative to control; format: functional; set-up: scale not given: the % may be the effect or the level left; conditions: dose 50 µg/ml

Row | Compound | Activity
19 | O=[N+]([O-])c1ccc(Oc2cc(-c3cc(F)cc(F)c3)nc3ccccc23)cc1 | 28.3%
20 | c1ccc(Oc2cc(-c3ccc4c(c3)OCO4)nc3ccccc23)cc1 | 47.6%

test system: Mucor circinelloides; assay: Antifungal activity against Mucor circinelloides M5 strain assessed as reduction in spore germination at 50 ug/ml relative to control; format: functional; set-up: scale not given: the % may be the effect or the level left; conditions: dose 50 µg/ml

Row | Compound | Activity
21 | O=[N+]([O-])c1ccc(Oc2cc(-c3cc(F)cc(F)c3)nc3ccccc23)cc1 | 37.3%
22 | c1ccc(Oc2cc(-c3ccc4c(c3)OCO4)nc3ccccc23)cc1 | 52.8%

test system: Mucor circinelloides; assay: Antifungal activity against Mucor circinelloides R7B wild type strain assessed as reduction in spore germination at 150 ug/ml relative to control; format: functional; set-up: scale not given: the % may be the effect or the level left; conditions: dose 150 µg/ml

Row | Compound | Activity
23 | O=[N+]([O-])c1ccc(Oc2cc(-c3cc(F)cc(F)c3)nc3ccccc23)cc1 | 5.8%
24 | c1ccc(Oc2cc(-c3ccc4c(c3)OCO4)nc3ccccc23)cc1 | 21.6%

test system: Mucor circinelloides; assay: Antifungal activity against Mucor circinelloides M5 strain assessed as reduction in spore germination at 150 ug/ml relative to control; format: functional; set-up: scale not given: the % may be the effect or the level left; conditions: dose 150 µg/ml

Row | Compound | Activity
25 | O=[N+]([O-])c1ccc(Oc2cc(-c3cc(F)cc(F)c3)nc3ccccc23)cc1 | 7.9%
26 | c1ccc(Oc2cc(-c3ccc4c(c3)OCO4)nc3ccccc23)cc1 | 23.4%

test system: not listed separately; assay: Cytotoxicity against mouse NIH/3T3 cells assessed as reduction in cell viability at 25 ug/ml incubated for 48 hrs by MTT assay (reference value: 93.8 +/- 4.9 %); format: toxicity, cell-based, NIH3T3; conditions: at 25 µg/mL, read-out: Activity

Row | Compound | viability at 48 h, 25 ug/ml
27 | O=[N+]([O-])c1ccc(Oc2cc(-c3cc(F)cc(F)c3)nc3ccccc23)cc1 | 94.5%

test system: not listed separately; assay: Cytotoxicity against mouse NIH/3T3 cells assessed as reduction in cell viability at 50 ug/ml incubated for 48 hrs by MTT assay (reference value: 93.8 +/- 4.9 %); format: toxicity, cell-based, NIH3T3; conditions: at 50 µg/mL, read-out: Activity

Row | Compound | viability at 48 h, 50 ug/ml
28 | O=[N+]([O-])c1ccc(Oc2cc(-c3cc(F)cc(F)c3)nc3ccccc23)cc1 | 91.8%

test system: not listed separately; assay: Cytotoxicity against mouse NIH/3T3 cells assessed as reduction in cell viability at 100 ug/ml incubated for 48 hrs by MTT assay (reference value: 93.8 +/- 4.9 %); format: toxicity, cell-based, NIH3T3; conditions: at 100 µg/mL, read-out: Activity

Row | Compound | viability at 48 h, 100 ug/ml
29 | O=[N+]([O-])c1ccc(Oc2cc(-c3cc(F)cc(F)c3)nc3ccccc23)cc1 | 84%

test system: not listed separately; assay: Cytotoxicity against mouse NIH/3T3 cells assessed as reduction in cell viability at 150 ug/ml incubated for 48 hrs by MTT assay (reference value: 93.8 +/- 4.9 %); format: toxicity, cell-based, NIH3T3; conditions: at 150 µg/mL, read-out: Activity

Row | Compound | viability at 48 h, 150 ug/ml
30 | O=[N+]([O-])c1ccc(Oc2cc(-c3cc(F)cc(F)c3)nc3ccccc23)cc1 | 18.3%

test system: not listed separately; assay: Cytotoxicity against mouse NIH/3T3 cells assessed as reduction in cell viability at 200 ug/ml incubated for 48 hrs by MTT assay (reference value: 93.8 +/- 4.9 %); format: toxicity, cell-based, NIH3T3; conditions: at 200 µg/mL, read-out: Activity

Row | Compound | viability at 48 h, 200 ug/ml
31 | O=[N+]([O-])c1ccc(Oc2cc(-c3cc(F)cc(F)c3)nc3ccccc23)cc1 | 15.5%

molecular target: T1, Lanosterol 14-alpha demethylase (Mus musculus, UniProt Q8K0C4); assay: Inhibition of CYP51 in mouse NIH/3T3 cells assessed as specific enzymatic activity at 25 ug/ml incubated for 48 hrs by ELISA analysis; format: ADME, cell-based; conditions: nih/3t3, 48 h, dose 25 µg/ml
T1 sequence (Q8K0C4 whole entry): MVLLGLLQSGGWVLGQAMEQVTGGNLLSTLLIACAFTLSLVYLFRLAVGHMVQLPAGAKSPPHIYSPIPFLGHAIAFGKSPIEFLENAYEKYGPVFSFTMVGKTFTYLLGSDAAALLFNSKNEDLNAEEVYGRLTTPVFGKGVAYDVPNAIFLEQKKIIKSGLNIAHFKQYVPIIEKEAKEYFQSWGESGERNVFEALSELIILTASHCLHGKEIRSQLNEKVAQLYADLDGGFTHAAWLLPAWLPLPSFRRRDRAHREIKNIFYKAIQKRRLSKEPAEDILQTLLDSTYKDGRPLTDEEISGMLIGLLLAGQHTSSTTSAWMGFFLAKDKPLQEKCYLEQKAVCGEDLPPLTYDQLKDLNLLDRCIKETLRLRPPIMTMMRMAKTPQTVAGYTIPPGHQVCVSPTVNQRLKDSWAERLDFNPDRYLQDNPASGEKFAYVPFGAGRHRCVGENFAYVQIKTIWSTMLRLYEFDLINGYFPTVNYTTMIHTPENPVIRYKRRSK

Row | Compound | Activity
32 | O=[N+]([O-])c1ccc(Oc2cc(-c3cc(F)cc(F)c3)nc3ccccc23)cc1 | 16.7 U/mg

molecular target: T1, Lanosterol 14-alpha demethylase; assay: Inhibition of CYP51 in mouse NIH/3T3 cells assessed as specific enzymatic activity at 50 ug/ml incubated for 48 hrs by ELISA analysis; format: ADME, cell-based; conditions: nih/3t3, 48 h, dose 50 µg/ml

Row | Compound | Activity
33 | O=[N+]([O-])c1ccc(Oc2cc(-c3cc(F)cc(F)c3)nc3ccccc23)cc1 | 11.21 U/mg

molecular target: T1, Lanosterol 14-alpha demethylase; assay: Inhibition of CYP51 in mouse NIH/3T3 cells assessed as specific enzymatic activity at 100 ug/ml incubated for 48 hrs by ELISA analysis; format: ADME, cell-based; conditions: nih/3t3, 48 h, dose 100 µg/ml

Row | Compound | Activity
34 | O=[N+]([O-])c1ccc(Oc2cc(-c3cc(F)cc(F)c3)nc3ccccc23)cc1 | 6.02 U/mg

molecular target: T1, Lanosterol 14-alpha demethylase; assay: Inhibition of CYP51 in mouse NIH/3T3 cells assessed as specific enzymatic activity at 150 ug/ml incubated for 48 hrs by ELISA analysis; format: ADME, cell-based; conditions: nih/3t3, 48 h, dose 150 µg/ml

Row | Compound | Activity
35 | O=[N+]([O-])c1ccc(Oc2cc(-c3cc(F)cc(F)c3)nc3ccccc23)cc1 | 2.56 U/mg

molecular target: T1, Lanosterol 14-alpha demethylase; assay: Inhibition of CYP51 in mouse NIH/3T3 cells assessed as specific enzymatic activity at 200 ug/ml incubated for 48 hrs by ELISA analysis; format: ADME, cell-based; conditions: nih/3t3, 48 h, dose 200 µg/ml

Row | Compound | Activity
36 | O=[N+]([O-])c1ccc(Oc2cc(-c3cc(F)cc(F)c3)nc3ccccc23)cc1 | 0.4 U/mg

test system: Mucor circinelloides; assay: Antifungal activity against Mucor circinelloides R7B wild type strain assessed as few mycelia with several spores at 50 ug/ml by microscopic analysis; format: functional, organism-based; conditions: dose 50.0 µg/ml

Row | Compound | Activity
37 | O=[N+]([O-])c1ccc(Oc2cc(-c3cc(F)cc(F)c3)nc3ccccc23)cc1 | Active

test system: Mucor circinelloides; assay: Antifungal activity against Mucor circinelloides M5 strain assessed as few mycelia with several spores at 50 ug/ml by microscopic analysis; format: functional, organism-based; conditions: dose 50.0 µg/ml

Row | Compound | Activity
38 | O=[N+]([O-])c1ccc(Oc2cc(-c3cc(F)cc(F)c3)nc3ccccc23)cc1 | Active

test system: Mucor circinelloides; assay: Antifungal activity against Mucor circinelloides R7B wild type strain assessed as non-germinated spores and undifferentiated hyphae at 50 ug/ml by microscopic analysis; format: functional, organism-based; conditions: dose 50.0 µg/ml

Row | Compound | Activity
39 | O=[N+]([O-])c1ccc(Oc2cc(-c3cc(F)cc(F)c3)nc3ccccc23)cc1 | Active

test system: Mucor circinelloides; assay: Antifungal activity against Mucor circinelloides M5 strain assessed as non-germinated spores and undifferentiated hyphae at 50 ug/ml by microscopic analysis; format: functional, organism-based; conditions: dose 50.0 µg/ml

Row | Compound | Activity
40 | O=[N+]([O-])c1ccc(Oc2cc(-c3cc(F)cc(F)c3)nc3ccccc23)cc1 | Active

test system: Mucor circinelloides; assay: Antifungal activity against Mucor circinelloides R7B wild type strain assessed as complete absence of mycelia at 100 to 150 ug/ml by microscopic analysis; format: functional, organism-based; conditions: dose 100-150 µg/ml

Row | Compound | Activity
41 | O=[N+]([O-])c1ccc(Oc2cc(-c3cc(F)cc(F)c3)nc3ccccc23)cc1 | Active

test system: Mucor circinelloides; assay: Antifungal activity against Mucor circinelloides M5 strain assessed as complete absence of mycelia at 100 to 150 ug/ml by microscopic analysis; format: functional, organism-based; conditions: dose 100-150 µg/ml

Row | Compound | Activity
42 | O=[N+]([O-])c1ccc(Oc2cc(-c3cc(F)cc(F)c3)nc3ccccc23)cc1 | Active

test system: Mucor circinelloides; assay: Antifungal activity against Mucor circinelloides R7B wild type strain assessed as non-germinated spores at 100 to 150 ug/ml by microscopic analysis; format: functional, organism-based; conditions: dose 100-150 µg/ml

Row | Compound | Activity
43 | O=[N+]([O-])c1ccc(Oc2cc(-c3cc(F)cc(F)c3)nc3ccccc23)cc1 | Active

test system: Mucor circinelloides; assay: Antifungal activity against Mucor circinelloides M5 strain assessed as non-germinated spores at 100 to 150 ug/ml by microscopic analysis; format: functional, organism-based; conditions: dose 100-150 µg/ml

Row | Compound | Activity
44 | O=[N+]([O-])c1ccc(Oc2cc(-c3cc(F)cc(F)c3)nc3ccccc23)cc1 | Active
